Experimental data from publication PMC12430429, “Synthesis, Structure, DNA/BSA Binding, DNA Cleaving, Cytotoxic and SOD Mimetic Activities of Copper(II) Complexes Derived from Methoxybenzylamine Schiff Base Ligands” (Molecules, 2025).
Like-named read-outs stand apart in the source and are kept apart here.

Columns and labels:
[1] = tested on: HEL cells (human lung fibroblast, normal); assay: MTT cytotoxicity assay, HEL; format: cell-based; settings: 72 h
Method: The cytotoxicity study of the prepared copper(II) complexes was performed using the MTT assay on human cell lines—A549 (adenocarcinoma human alveolar basal epithelial cell line), HepG2 (human liver cancer cell line) and HEL (human lung fibroblast cell line, normal cells).
The cytotoxicity of the prepared copper(II) complexes in human cell lines was evaluated using the 3-(4,5-dimethylthiazol-2-yl)-2,5-diphenyltetrazolium bromide (MTT) assay following the protocol by Mosmann. Briefly, A549 (human lung epithelial cells, carcinoma), HepG2 (human liver epithelial cells, carcinoma) and HEL (human lung fibroblast cells, normal) cells were seeded in plastic 96-well plates at a density of 1.5–2 × 10^4 cells per well. […] After the treatment, the samples were washed with phosphate-buffered saline (PBS), followed by 4 h of incubation with 1 mg/mL of MTT. Subsequently, the MTT solution was removed, and the formed formazane solids were dissolved in dimethyl sulfoxide for 30 min. The photometric evaluation (at 540 nm and 690 nm) was carried out using an xMark™ Microplate Absorbance Spectrophotometer (Bio-Rad, Hercules, CA, USA) [88].
A549 (ATCC® CCL-185), HepG2 (ATCC® HB-8065) and HEL299 (ATCC® CCL-137) cells were obtained from Lambda Life (Bratislava, Slovakia). A549 cells were kept in Dulbecco’s Modified Eagle’s Medium (DMEM) supplemented with 10% fetal bovine serum (FBS) and 1% antibiotics (penicillin and streptomycin). HepG2 cells were kept in Williams medium supplemented with 10% fetal bovine serum (FBS) and 1% antibiotics (penicillin and streptomycin). HEL299 cells were kept in Minimum Essential Medium (MEM) supplemented with 10% fetal bovine serum (FBS), 1% antibiotics (penicillin and streptomycin) and 1% non-essential amino acids (NEAA). The cells were cultured in a humidified atmosphere of 5% CO2 at 37 °C. Once the cells reached approximately 80% confluence, they were harvested and subcultured after trypsin treatment.

[2] = SOD mimetic activity / radical scavenging assay (INT method); format: biochemical; settings: for Activity at c1 (%), inhibition of radical transfer to INT: c1 = 0.572 mM
Method: The radical scavenging ability with respect to the SOD mimetic activity of the prepared complexes was determined by the INT method. This method is based on a competitive reaction with the superoxide anion radical from KO2 between the measured compound (complex) and 2-(4-Iodophenyl)-3-(4-nitrophenyl)-5-phenyl-2H-tetrazolium chloride (INT). INT reacts with the single electron of O2^− and produces blue-green formazane detected as light absorption at 500 nm. Complexes with good antiradical activity also react with O2^−, and as a result of this, less formazane is formed.
The first type of antiradical activity measurements involved the determination of inhibition percent values of electron transfer on INT at specific concentrations (Table 9). Two concentrations were selected to achieve good solubility of the complexes (4 and 1 mM for 4a and 4c, 2 and 1 mM for 4b). The complex 4b dissolved readily at a concentration of 4 mM, but the mixture was very dark, making measurements at 500 nm difficult. Therefore, a less concentrated initial solution was used (2 mM) as the higher concentration. In total, 0.5 mL of the initial solutions was used to prepare sample solutions that also contained INT and KO2 solutions and DMSO with an overall volume of 3.5 mL. The resulting concentrations were c1 = 0.572 mM, c1* = 0.286 mM and c2 = 0.143 mM, respectively. Complexes 4a and 4c once again provided high percentages at c1 (approximately 96–99%) but the activity dropped below 24% at c2, while complex 4b maintained mediocre activity at both concentrations. It seems that the concentration increase had only a small effect on the activity of 4b; something similar was also observed in the DNA cleavage study for complex 4b. The complexes were compared with the model compound cystamine, which was used as a standard for superoxide antiradical scavenging due to the presence of a free […] group, which is also present in glutathione.
To improve the comparability of SOD mimetic activity, IC50 concentrations were determined by performing a series of measurements with decreasing concentration. IC50 values were calculated from the trend function equation as the concentration with 50% inhibition of electron transfer on INT (Table 10).
The method is based on the agent 2-(4-Iodophenyl)-3-(4-nitrophenyl)-5-phenyl-2H-tetrazolium chloride (INT), able to scavenge a superoxide radical anion from KO2. The reaction produces a blue-green formazane, which is detected as light absorption at 500 nm. The radical scavengers (measured complexes) compete with INT for radicals and reduce the formation of formazane and light absorption at 500 nm. Antiradical activity was measured on a Synergy HT BioTek spectrophotometer. DMSO was used as the solvent for the complex and KO2 (saturated solution). The INT initial solution (4 M) was prepared in a sodium tetraborate buffer solution with pH adjusted to 7.1 with HCl.
For each measurement, an initial solution of the sample (0.5 mL) of a specific concentration (4–0.1 mM) was prepared in DMSO. Due to the addition of INT (0.5 mL) and KO2 (0.5 mL) solutions and additional DMSO (2 mL), the concentrations of the measured complexes decreased seven times (3.5 mL of total mixture). Each result was the average value of three parallel measurements expressed with a standard deviation (more information in the Supplementary Materials). For the determination of SOD-IC50, several measurements with decreasing sample concentration were performed. […] A linear trend function of the percentage of inhibition and negative logarithm of concentration was used to calculate the SOD-IC50 value as the concentration with 50% inhibition of INT–formazane formation. […]
Green: 5c 5 mM (S. cerevisiae 1x10^9 cells /ml + 0.5 ml 0.9% NaCl + 0.5 ml 5c + 0.1 ml Resazurin OX) measured in time
S6. SOD Mimetic A ctivity A ssay
For each measurement, an initial solution of the sample of a specific concentration was prepared […]

[3] = 50% inhibition of electron transfer on INT, read-out: SOD-IC50

SMILES | IC50 [1] | IC50 [2, 3] | Activity at c1 (%), inhibition of radical transfer to INT [2] | IC50 ([2]; INT method, read-out: concentration of 50% inhibition (SOD-IC50), given as range) | Activity at c1* (%), inhibition of radical transfer to INT ([2]; c1* = 0.286 mM (reduced for complex 4b)) | Activity at c2 (%), inhibition of radical transfer to INT ([2]; c2 = 0.143 mM)
COc1ccccc1CN=Cc1ccccc1[O-].COc1ccccc1CN=Cc1ccccc1[O-].[Cl-].[Cl-].[Cu+2].[Cu+2] [Complex 4a, [Cu2 (Sal-2-MeOBn)2 Cl2]] | 65.9 ± 6.9 µM | 242 ± 1 µM | 95.8 ± 2.2% | – | – | –
COc1cccc(CN=Cc2ccccc2[O][Cu][O]c2ccccc2C=NCc2cccc(OC)c2)c1 [Complex 4b, [Cu (Sal-3-MeOBn)2]] | 44.3 ± 3.6 µM | 1090 ± 56 µM | – | > 1000 µM | 40.1 ± 1.9 * % | 35.8 ± 1.3%
COc1ccc(CN=Cc2ccccc2[O-])cc1.COc1ccc(CN=Cc2ccccc2[O-])cc1.[Cl-].[Cl-].[Cu+2].[Cu+2] [Complex 4c, [Cu2 (Sal-4-MeOBn)2 Cl2]] | 62.9 ± 6.2 µM | 189 ± 11 µM | 98.9 ± 0.5% | – | – | –
